In patent US12378199B2, “Rigidified pentadentate chelating agents useful for the [Al18F]2+ labelling of biomolecules” (UNIVERSITÀ DEGLI STUDI DEL PIEMONTE ORIENTALE “A. AVOGADRO”, priority 2019, dated 2025):

Test: stability of the AlF-18 complexes by incubation in human serum
Type: in vitro ADME
Description: The reactions for labelling with [AlF-18]^2+ were carried out at various pH (between 4 and 6.5) and at various temperatures (25, 37 and 80°). The preparation of [AlF-18]^2+ and the subsequent labelling with the chelating agents covered by the present patent were carried out according to the procedure cited by Bormans and colleagues (Nature Prot. 2018, 13, 2330-2347). The labeled products were purified using Sep-Pak Alumina N Plus Light cartridges and eluted with a 0.9% NaCl solution. All of the products were analyzed by means of radio-TLC and radio-HPLC and the stability of the tracers was studied at 10, 30, 60, 120 and 240 minutes by means of incubation in […] different solutions: human serum, PBS, EDTA 5 mM and 0.9% NaCl solutions.
An additional advantage is the stability in human serum detected for the compounds of the present invention. An increased stability in human serum was measured for the chelating agent 2-AMPDA-HB, with 90% of AlF-18 still complexed after 120 minutes, whereas the complexed percentage was 55% for the chelating agent 2-AMPTA.

O=C(O)CN(CC(=O)O)CC1CCCCN1CC(=O)O (centres unmarked) [2-AMPTA]
AlF-18 still complexed in human serum (after 120 minutes): 55% | stability of the AlF-18 complexes in human serum (after 240 minutes): 33%
